In the supplement of paper PMC10307832:

Columns and labels:
Test in all cases: relative viability (nuclei count vs DMSO), 5 days (fraction); higher = more cells survive
ALW-II-49-7 + Tozasertib = compound: Cc1ccc(C(=O)Nc2cccc(C(F)(F)F)c2)cc1Nc1cncc(C(N)=O)c1 [ALW-II-49-7] + Cc1cc(Nc2cc(N3CCN(C)CC3)nc(Sc3ccc(NC(=O)C4CC4)cc3)n2)n[nH]1 [Tozasertib] (partner 0.1 µM)
How it was run: (§1)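 Lung cancer cell lines in 1536-well plates were dosed by pin tool the day after seeding, either with one drug alone or with a fixed anchor-drug dose plus five library-drug doses (not always all listed) in √10 steps. After 5 days, cells were fixed and their nuclei stained in one step (final 0.05% Triton X-100, 1% formaldehyde, 1 ug/ml Hoechst), then counted on 4× images. Relative viability is the nuclei count in treated wells divided by that in vehicle wells. Values are medians of duplicate plates.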

Dasatinib + Palbociclib = compound: Cc1nc(Nc2ncc(C(=O)Nc3c(C)cccc3Cl)s2)cc(N2CCN(CCO)CC2)n1 [Dasatinib] + CC(=O)c1c(C)c2cnc(Nc3ccc(N4CCNCC4)cn3)nc2n(C2CCCC2)c1=O [Palbociclib] (partner 0.5 µM)
How it was run: as §1

XMD13-2 + Luminespib = compound: C1CC1C(=O)NC2=NNC3=C2C=CC(=C3)C4=CC(=CC=C4)C(=O)NC5CC5 [XMD13-2] + CCNC(=O)c1noc(-c2cc(C(C)C)c(O)cc2O)c1-c1ccc(CN2CCOCC2)cc1 [Luminespib] (partner 0.01 µM)
How it was run: as §1

ALW-II-49-7 + Lapatinib = compound: Cc1ccc(C(=O)Nc2cccc(C(F)(F)F)c2)cc1Nc1cncc(C(N)=O)c1 [ALW-II-49-7] + CS(=O)(=O)CCNCc1ccc(-c2ccc3ncnc(Nc4ccc(OCc5cccc(F)c5)c(Cl)c4)c3c2)o1 [Lapatinib] (partner 2 µM)
How it was run: as §1

Work on UMC-11 yielded a relative viability (ALW-II-49-7 + Tozasertib; first compound 0.08 µM) of 0.193, a relative viability (ALW-II-49-7 + Tozasertib; first compound 0.253 µM) of 0.202 and a relative viability (ALW-II-49-7 + Tozasertib; first compound 0.8 µM) of 0.21. The relative viability (ALW-II-49-7 + Tozasertib; first compound 2.53 µM) was 0.186, the relative viability (ALW-II-49-7 + Tozasertib; first compound 8 µM) was 0.217 and the relative viability (Dasatinib + Palbociclib; first compound 0.005 µM) was 0.335. For the same cell line, the relative viability (Dasatinib + Palbociclib; first compound 0.01581 µM) was 0.278, the relative viability (Dasatinib + Palbociclib; first compound 0.05 µM) was 0.27 and the relative viability (Dasatinib + Palbociclib; first compound 0.1581 µM) was 0.236. For the same cell line, the relative viability (Dasatinib + Palbociclib; first compound 0.5 µM) was 0.188, the relative viability (XMD13-2 + Luminespib; first compound 0.05 µM) was 1.11 and the relative viability (XMD13-2 + Luminespib; first compound 0.1581 µM) was 1.02. For the same cell line, the relative viability (XMD13-2 + Luminespib; first compound 0.5 µM) was 0.992, the relative viability (XMD13-2 + Luminespib; first compound 1.581 µM) was 0.961 and the relative viability (XMD13-2 + Luminespib; first compound 5 µM) was 0.974. It also gave a relative viability (ALW-II-49-7 + Lapatinib; first compound 0.08 µM) of 0.943, a relative viability (ALW-II-49-7 + Lapatinib; first compound 0.253 µM) of 1.08 and a relative viability (ALW-II-49-7 + Lapatinib; first compound 0.8 µM) of 0.998. It also gave a relative viability (ALW-II-49-7 + Lapatinib; first compound 2.53 µM) of 1.04 and a relative viability (ALW-II-49-7 + Lapatinib; first compound 8 µM) of 0.806.
